Assays:
human glioblastoma cells = assay: DNA synthesis by bromodeoxyuridine (BrdU) incorporation; assay type: cell-based; details: 1 μM, 24 hours
Procedure: To investigate whether these peptide hormones were inhibiting DNA synthesis, bromodeoxyuridine (BrdU) incorporation into the human glioblastoma cells was utilized as previously described from our laboratory. BrdU was from BD Bioscience, San Jose, Calif. After 24 hours in culture with 1 μM of LANP, vessel dilator, kaliuretic peptide, ANP, and DNP, respectively, or with no peptide hormone (i.e., control), BrdU in a final concentration of 10 μM in the cell culture medium was added for 45 minutes, which is the time in which the cells are in the logarithmic phase of cell proliferation.
(§1) The data obtained in this investigation are illustrated as mean±SEM. Maximum changes in cell death (evaluated six times with ten areas of microscope slide evaluated each time) and DNA synthesis within groups were determined by a paired one-tailed Student's t test evaluated with statistical module of Excel software. To be considered statistically significant, we required a probability value to be <0.05 (95% confidence limits).

[1] = test system: human glioblastoma cells (ATCC number CRL-11543); assay: number of human glioblastoma cells counted after incubation with peptide hormones; assay type: cell-based; details: for decrease in number of human glioblastoma cells compared to control: at 96 hours (three days after 24 hours exposure); for number of glioblastoma cancer cells remaining (per field): 24 hours, mean±SEM, control 130±3 cells
Procedure: A cell line (ATCC number CRL-11543) of human glioblastoma cells were purchased from American Type Culture Collection (ATCC, Manassas, Va.). This glioblastoma cell line was deposited by the Ludwig Institute for Cancer Research, University of California at San Diego, La Jolla, Calif. This glioblastoma cell line produces angiogensis inhibiting factor.
Propagation of these human glioblastoma cells was in Dulbecco's modified Eagle's medium with 4 mM L-glutamine adjusted to contain 1.5 g/L sodium bicarconate and 4.5 g/L glucose supplemented with 1 μg/ml tetracycline, […], and 10% fetal bovine serum (Atlanta Biologicals, Lawrenceville, Ga.) at a temperature of 37° C. in a […] environment as recommended by the ATCC. Cells were dispensed in new flasks with subculturing two to three times per week.
After the glioblastoma cells were subcultured for 24 hours they were then seeded to coverslips in 24-well plates (Nunclon™, Roskilde, Denmark) with 1 mL of the above media. There were 65,000 cells seeded to each coverslip. After 24 hours, the well plates were washed twice with phosphate-buffered saline to remove the fetal bovine serum. Removal of serum was carried out to completely remove all variables (EGF, etc.) present in serum in order that interpretation of any data obtained would be straightforward. After 24 hours of serum deprivation, media volume was reduced to 250 μL per well with, or without, the respective peptide hormones in dose-response curves with concentrations up to and including 100 μM (1% of this volume). Human glioblastoma cells were then incubated for various periods of time (24, 48, 72, and 96 hours). The number of glioblastoma carcinoma cells were then counted with a cell counter (Thomas Scientific, Swedesboro, N.J.) evaluating ten fields of the microscope slide at ×40 along the X-axis with an Olympus BH-2 microscope (Atlanta, Ga.). This evaluation was repeated on six separate occasions with the number of human glioblastoma cells reflecting 60 observations for each group, i.e., 60 observations for controls and 60 observations for each of the five groups with respective peptide hormones. The peptide hormones used in this investigation were from Phoenix Pharmaceuticals, Inc., Belmont, Calif. In the Results section, the number of cancer cells reported is the number of cells in each individual field. Ten fields were examined on each microscope slide. The results of the ten fields were pooled and the average of the ten fields is illustrated in the Results section.
as §1

[2] = human or animal subjects; cited from earlier work
[3] = test system: small-cell lung cancer cells; details: 1 μM; cited from earlier work
[4] = test system: human pancreatic adenocarcinoma cells; details: 1 μM; cited from earlier work
[5] = test system: human prostate cancer cells; details: cited from earlier work
[6] = test system: human pancreatic adenocarcinomas; details: in one week, athymic mice; cited from earlier work
human colon cancer cells = details: within 24 hours; cited from earlier work
[7] = 1 μM, at 48 hours (24 hours exposure only)
[8] = 1 μM, at 72 hours (24 hours exposure only)
[9] = 10 μM, at 48 hours (24 hours exposure only)
[10] = 10 μM, at 72 hours (24 hours exposure only)
[11] = 100 μM, at 48 hours (24 hours exposure only)
[12] = 100 μM, at 72 hours (24 hours exposure only)

Compound | decrease in DNA synthesis (human glioblastoma cells) [%] | decrease in number of human glioblastoma cells compared to control ([1]; 1 μM) [%] | decrease in number of human glioblastoma cells compared to control ([1]; 10 μM) [%] | decrease in number of human glioblastoma cells compared to control ([1]; 100 μM) [%] | side effect hypotension [2] | decrease in number of human glioblastoma cells [1, 7] [%] | decrease in number of human glioblastoma cells [1, 8] [%] | decrease in number of human glioblastoma cells [1, 9] [%] | decrease in number of human glioblastoma cells [1, 10] [%] | decrease in number of human glioblastoma cells ([1]; 100 μM, at 24 hours) [%] | decrease in number of human glioblastoma cells [1, 11] [%] | decrease in number of human glioblastoma cells [1, 12] [%] | decrease in number of human glioblastoma cells ([1]; 1 μM, at 24 hours) [%] | decrease in number of human glioblastoma cells ([1]; 10 μM, at 24 hours) [%] | number of glioblastoma cancer cells remaining (per field) ([1]; 100 μM) [cells] | other results
CC[C@H](C)[C@@H]1NC(=O)[C@H](CCCNC(=N)N)NC(=O)[C@H](CC(=O)O)NC(=O)[C@H](CCSC)NC(=O)[C@H](CCCNC(=N)N)NC(=O)CNC(=O)CNC(=O)[C@H](Cc2ccccc2)NC(=O)[C@@H](NC(=O)[C@H](CO)NC(=O)[C@H](CO)NC(=O)[C@H](CCCNC(=N)N)NC(=O)[C@H](CCCNC(=N)N)NC(=O)[C@H](CC(C)C)NC(=O)[C@@H](N)CO)CSSC[C@@H](C(=O)N[C@@H](CC(N)=O)C(=O)N[C@@H](CO)C(=O)N[C@@H](Cc2ccccc2)C(=O)N[C@@H](CCCNC(=N)N)C(=O)N[C@@H](Cc2ccc(O)cc2)C(=O)O)NC(=O)CNC(=O)[C@H](CC(C)C)NC(=O)CNC(=O)[C@H](CO)NC(=O)[C@H](CCC(N)=O)NC(=O)[C@H](C)NC(=O)CNC1=O [ANP, atrial natriuretic peptide] | 79 | 24 | 43 | 60 | observed |  |  |  |  |  |  |  |  |  |  | 
Dendroaspis natriuretic peptide [DNP] | 23 | 1 | 5 | 8 |  | 1 | 1 | 7 | 6 | 17 | 19 | 19 |  |  |  | concentration where first began to have an effect on glioblastoma cells [1]: 100 µM; difference in concentration with significant anticancer effects, DNP versus human cardiac hormones ([1]; DNP higher, human cardiac hormones lower): 100 fold; killing / elimination of human glioblastoma cells, up to ([1]; within 24 hours, maximum effect, concentration not given): up to 19%
brain natriuretic peptide [BNP, reference compound] | 23 |  |  |  |  |  |  |  |  |  |  |  |  |  |  | 
kaliuretic peptide | 77 | 25 | 40 | 64 | never | 32 | 32 | 51 | 52 | 68 | 68 | 68 | 33 | 51 | 43±2 | decrease in small-cell lung cancer cells [3]: 30%; decrease in human pancreatic adenocarcinoma cells [4]: 37%; decrease in number of human glioblastoma cells ([1]; 1 μM, at 24 hours, listed as Kaliuretic peptide): 32%; decrease in prostate adenocarcinoma cells ([5]; 1 μM): 30%
long acting natriuretic peptide (NPMYNAVSNADLMDFKNLLDHLEEKMPLED; Long-acting natriuretic peptide; UniProt P01160 26-55, looked up, fragment) [LANP, cardiac hormone, first 30 amino acids of the 126 a.a. atrial natriuretic peptide prohormone] | 65 | 24 | 39 | 61 | never | 31 | 31 | 50 | 50 | 65 | 65 | 66 | 31 | 49 | 43±2 | 
vessel dilator | 87 | 43 | 55 | 68 | never | 53 | 53 | 60 | 60 | 75 | 76 | 76 | 53 | 60 | 33±2 | decrease in tumor volume [6]: 49%; lower concentration causing the same decrease as the other peptide hormones ([1]; within 24 hours, FIG. 2): 10 fold; decrease in number of human prostate cancer cells, up to ([5]; within 24 hours): up to 97%; decrease in number of human colon cancer cells, up to (human colon cancer cells): up to 97%

From patent US7825092B2, “Dendroaspis natriuretic peptide for treatment of cancer” (University of South Florida, priority 2006, dated 2010)
